Measurements published in the NIST ThermoML archive (doi:10.1021/je0497496).
Where “and” joins values, the source holds several entries; their conditions need not be identical. Equal values may be shown once. ± gives the expanded uncertainty stated by the source.

Settings: buoyancy

O [water]
Liquid
Settings	mass density
273.62 K, 105.71 kPa	999.859 ± 0.28 kg/m3
273.62 K, 1225.7 kPa	1000.42 ± 0.28 kg/m3
273.63 K, 105.71 kPa	999.82 ± 0.28 kg/m3
273.63 K, 2307.2 kPa	1001.02 ± 0.28 kg/m3
273.63 K, 3781.6 kPa	1001.68 ± 0.28 kg/m3
273.63 K, 4990.1 kPa	1002.27 ± 0.28 kg/m3
292.94 K, 1063.5 kPa	998.673 ± 0.28 kg/m3
292.94 K, 2097.6 kPa	999.18 ± 0.28 kg/m3
292.94 K, 3109.3 kPa	999.633 ± 0.28 kg/m3
292.94 K, 4139.9 kPa	1000.06 ± 0.28 kg/m3 and 1000.08 ± 0.28 kg/m3
292.95 K, 109.3 kPa	998.268 ± 0.28 kg/m3
302.91 K, 110.01 kPa	995.77 ± 0.28 kg/m3
302.91 K, 2049.8 kPa	996.571 ± 0.28 kg/m3
302.91 K, 4030.1 kPa	997.451 ± 0.28 kg/m3
302.92 K, 1005.9 kPa	996.106 ± 0.28 kg/m3
312.96 K, 345.05 kPa	992.42 ± 0.28 kg/m3
312.96 K, 1195.1 kPa	992.749 ± 0.28 kg/m3
312.96 K, 2093.1 kPa	993.139 ± 0.28 kg/m3
312.96 K, 3064.5 kPa	993.609 ± 0.28 kg/m3
312.96 K, 4141.2 kPa	994.071 ± 0.28 kg/m3

N#N [nitrogen]
Fluid (supercritical or subcritical phases)
Settings	mass density [kg/m3]
233.02 K, 506.32 kPa	7.36302 ± 0.025
233.02 K, 1007.1 kPa	14.7253 ± 0.025
233.02 K, 2000.9 kPa	29.5563 ± 0.026
233.02 K, 3001.4 kPa	44.779 ± 0.027
233.02 K, 5030.2 kPa	76.3292 ± 0.031
233.02 K, 5501 kPa	83.7756 ± 0.034
233.03 K, 506.34 kPa	7.36678 ± 0.025
233.03 K, 4002.6 kPa	60.2496 ± 0.029
253.36 K, 3010.1 kPa	40.8167 ± 0.026
253.36 K, 5651.9 kPa	77.5333 ± 0.031
253.37 K, 158.12 kPa	2.1053 ± 0.024
253.37 K, 1025.2 kPa	13.7338 ± 0.025
253.37 K, 5051.9 kPa	69.1481 ± 0.029
253.38 K, 158.09 kPa	2.10982 ± 0.024
253.38 K, 2061.7 kPa	27.8018 ± 0.025
253.38 K, 4007.1 kPa	54.5977 ± 0.028
273.05 K, 1000.4 kPa	12.3984 ± 0.024
273.06 K, 500.06 kPa	6.18643 ± 0.024
273.06 K, 500.07 kPa	6.19019 ± 0.024
273.06 K, 500.09 kPa	6.18538 ± 0.024
273.06 K, 2000 kPa	24.878 ± 0.024
273.06 K, 3000.1 kPa	37.4313 ± 0.025
273.06 K, 4000 kPa	50.0451 ± 0.026
273.06 K, 5000.4 kPa	62.6679 ± 0.028
273.06 K, 5500 kPa	68.9746 ± 0.029
293.02 K, 5015.1 kPa	58.0251 ± 0.026
293.03 K, 109.97 kPa	1.26716 ± 0.023
293.03 K, 1037 kPa	11.9492 ± 0.023
293.03 K, 2014 kPa	23.2508 ± 0.024
293.03 K, 3106.2 kPa	35.9063 ± 0.024
293.03 K, 3996.5 kPa	46.2267 ± 0.025
293.03 K, 5611.3 kPa	64.8959 ± 0.027
293.04 K, 109.35 kPa	1.25784 ± 0.023
313.12 K, 508.1 kPa	5.46882 ± 0.023
313.12 K, 508.11 kPa	5.46814 ± 0.023
313.12 K, 1000.3 kPa	10.7709 ± 0.023
313.12 K, 1999.8 kPa	21.5387 ± 0.023
313.12 K, 3999.9 kPa	43.0379 ± 0.024
313.12 K, 5000.1 kPa	53.7535 ± 0.025
313.13 K, 2999.7 kPa	32.2955 ± 0.024
313.13 K, 5500 kPa	59.0903 ± 0.026
333.12 K, 147.29 kPa	1.48909 ± 0.023
333.12 K, 147.34 kPa	1.48309 ± 0.023
333.12 K, 1049 kPa	10.6026 ± 0.023
333.12 K, 2020.6 kPa	20.4085 ± 0.023
333.12 K, 3039 kPa	30.6553 ± 0.023
333.12 K, 4001.5 kPa	40.3032 ± 0.024
333.12 K, 5029.1 kPa	50.5504 ± 0.025
333.12 K, 5511.3 kPa	55.3242 ± 0.025
353.31 K, 500.05 kPa	4.76148 ± 0.022
353.31 K, 500.09 kPa	4.76373 ± 0.022
353.31 K, 1001.8 kPa	9.53854 ± 0.022
353.31 K, 4000.7 kPa	37.8636 ± 0.023
353.32 K, 500.08 kPa	4.76448 ± 0.022
353.32 K, 2000 kPa	19.0116 ± 0.023
353.32 K, 3001.8 kPa	28.4762 ± 0.023
353.32 K, 4999.9 kPa	47.189 ± 0.024
353.32 K, 5500 kPa	51.8318 ± 0.024
